{"source": "patent US9157122B2", "about": "“Method of diagnosing cancer and reagents therefor” (Garvan Institute of Medical Research, priority 2004, dated 2015)", "type_in_all_cases": "cell-based, human", "key": {"HCT116 cells [1]": {"test_system": "HCT116 cells", "experiment": "Real-time RT-PCR gene expression in HCT116 cells treated with 5-Aza-2′-deoxycytidine and/or TSA", "conditions": "for expression of CpG island-associated genes that are unmethylated and transcriptionally repressed: DDX18, INSIG2, PTPN, RALBB, TSN, FIG. 16g-k; for expression of genes hypermethylated in HCT116 (EN1, SCTR and INHBB): genes linked to 2q14.2, FIG. 16b, c and d", "protocol": "RNA was extracted using Trizol reagent (Invitrogen) according to the manufacturer's protocol. cDNA was reverse transcribed from 2 μg of total RNA using SuperScriptTM III RNase H^- Reverse Transcriptase (Invitrogen Life technologies), according to the manufacturer's instructions. The reaction was primed with 200 ng of random hexamers (Roche). The reverse transcription reaction was then diluted 1:20 with sterile H2O before addition to a PCR reaction. […] The primers used for amplification comprise a sequence set forth in any one of SEQ ID Nos 119 to 218. Primers were used in a combination described herein. To control for the amount and integrity of the RNA, the Human 18S ribosomal RNA (rRNA) kit (P/N 4308329) (Applied Biosystems), containing the rRNA forward and reverse primers and rRNA VICTM probe, was used. 5 μl of the reverse transcription was used in a 20 μl reaction in TaqMan Universal PCR Master Mix (P/N 4304437) with 1 μl of the 20× Human 18S rRNA mix. The reactions were performed in triplicate and the standard deviation was calculated using the Comparative method (ABI PRISM 7700 Sequence Detection system User Bulletin #2, […] 4303859). The cycle number corresponding to where the measured fluorescence crosses a threshold is […] to the amount of starting material. The mean expression levels are represented as the ratio between each gene and 18S rRNA expression. The colon cancer cell line HCT116 was cultured in D-MEM/F12 (Gibco/BRL) medium supplemented with MEM sodium pyruvate and L-Glutamine and 10% fetal calf serum at 37° C. with 10% CO2. Cells were split 1:8 every 3-4 days. Cells were split 12 h to 24 h prior to treatment. 5-Aza-2'-deoxycytidine (5-aza-dC)(Sigma) was prepared as a 1 mg/ml stock in sterile water, filter-sterilized and frozen as aliquots. 100 mm tissue culture dishes were seeded with 0.5×10^6 cells and following 24 h incubation the cells were treated with 0.5 μm 5-aza-dC. The cells were treated for 24 hours after which the medium was replaced with fresh medium and the cells cultured for a further 48 h before harvesting. Cells were treated with trichostatin A (TSA) (Sigma) at 25, 50 and 100 nM for 24 h. Alternatively, an identical volume of ethanol was used as a control. For co-treatment of cells with 5-aza-dC and TSA, 5-aza-dC was added initially for 24 h, after which it was removed and TSA was added for a further 24 h. The concentrations and the treatment conditions used were chosen based on preliminary studies showing optimal reactivation of gene expression. Expression levels of the genes DDX18, INSIG2, EN1, MARCO, PTPN4, RALBB, GLI2 and TSN was determined essentially as described above."}, "HCT116 cells [2]": {"test_system": "HCT116 cells", "experiment": "ChIP assay with anti-dimethyl-histone H3(lys9) antibody in treated HCT116 cells, real-time PCR", "conditions": "relative to untreated cells; for methylation of H3-K9 histones associated with the p21 CpG island promoter region: FIG. 17a; for methylation of H3-K9 histones associated with the unmethylated genes (DDX18, INSIG2, PTPN, RALBB): FIG. 17g-k; for binding of methylated K9-H3 histones to DNA methylated genes (EN1, SCTR, INHBB, GLI2, MARCO): FIGS. 17b-f", "protocol": "ChIP assays were carried out according to the manufacturer (Upstate Biotechnology) and described in Stirzaker et al., Cancer Res 64: 3871-3877, 2004. Briefly, 1×10^6 HCT116 cells, in a 10 cm dish, were fixed by adding formaldehyde at a final concentration of 1% and incubating for 10 minutes at 37° C. The cells were washed twice with ice cold PBS containing protease inhibitors (1 mM phenylmethylsulfonyl fluoride (PMSF), 1 μg/ml aprotinin and 1 μg/ml pepstatin A), harvested and treated with SDS lysis buffer for 10 min on ice. The resulting lysates were sonicated to shear the DNA to fragment lengths of 200 to 500 basepairs. […] No antibody controls were also included for each ChIP assay and no precipitation was observed. The antibody/protein complexes were collected by salmon sperm DNA/protein A agarose slurry and washed several times following the manufacturer's instructions. The immune complexes were eluted with 1% SDS and 0.1 M NaHCO3 and the crosslinks were reversed by incubation at 65° C. for 4 hours in the presence of 200 mM NaCl. The samples were treated with proteinase K for 1 hour and the DNA was purified by phenol/chloroform extraction, ethanol precipitation and resuspended in 30 μl H2O. The amount of target that was immunoprecipitated, was measured by Real-Time PCR using the ABI Prism 7900HT Sequence Detection System. Amplification primers are set forth SEQ ID NOs: 235 to 256. PCR reactions were set up according to the SDS compendium (ver 2.1) for the 7900HT Applied Biosystems Sequence Detector as described previously (Stirzaker, supra). Either immunoprecipitated DNA, no-antibody control or input chromatin were used in each PCR and the PCRs were set up in triplicate. Standard deviation was calculated using the Comparative method (ABI PRISM 7700 Sequence Detection System User Bulletin #2, […] 4303859). For each sample an average CT value was obtained for immunoprecipitated material and for the input chromatin. The difference in CT values (delta CT) reflects the difference in the amount of material that was immunoprecipitated relative to the amount of input (ABI PRISM 7700 Sequence Detection system User Bulletin #2, […] 4303859). To determine if chromatin modification was associated with the suppression of all the genes across the entire band in cancer, regardless of the DNA methylation status, ChIP (chromatin immunoprecipitation) analysis and real-time PCR was performed."}, "HCT116 cells [3]": {"test_system": "HCT116 cells", "experiment": "ChIP assay with anti-acetylated histone antibody in treated HCT116 cells, real-time PCR", "conditions": "relative to untreated cells, FIG. 18", "protocol": "ChIP assays were carried out according to the manufacturer (Upstate Biotechnology) and described in Stirzaker et al., Cancer Res 64: 3871-3877, 2004. Briefly, ˜1×10^6 HCT116 cells, in a 10 cm dish, were fixed by adding formaldehyde at a final concentration of 1% and incubating for 10 minutes at 37° C. The cells were washed twice with ice cold PBS containing protease inhibitors (1 mM phenylmethylsulfonyl fluoride (PMSF), 1 μg/ml aprotinin and 1 μg/ml pepstatin A), harvested and treated with SDS lysis buffer for 10 min on ice. The resulting lysates were sonicated to shear the DNA to fragment lengths of 200 to 500 basepairs. The complexes were immunoprecipitated with an antibody specific for dimethyl-histone H3(lys9), Upstate Biotechnology (#07-212) or acetylated histone. […]\nThe amount of target that was immunoprecipitated, was measured by Real-Time PCR using the ABI Prism 7900HT Sequence Detection System. […] Standard deviation was calculated using the Comparative method (ABI PRISM 7700 Sequence Detection System User Bulletin #2, 1997 (P/N 4303859). For each sample an average CT value was obtained for immunoprecipitated material and for the input chromatin. The difference in CT values (delta CT) reflects the difference in the amount of material that was immunoprecipitated relative to the amount of input (ABI PRISM 7700 Sequence Detection system User Bulletin #2, 1997 (P/N 4303859)."}}}
{"smiles": "Nc1ncn([C@H]2C[C@H](O)[C@@H](CO)O2)c(=O)n1", "note": "[5AzaC, 5-Aza-2′-deoxycytidine]", "values": [{"measurement": "expression of CpG island-associated genes that are unmethylated and transcriptionally repressed", "setting": "HCT116 cells [1]", "value": "some reactivation"}, {"measurement": "expression of genes hypermethylated in HCT116 (EN1, SCTR and INHBB)", "setting": "HCT116 cells [1]", "value": "small increases of expression"}, {"measurement": "methylation of H3-K9 histones associated with the p21 CpG island promoter region", "setting": "HCT116 cells [2]", "value": "Demethylation of the H3-K9 histones also occurred"}, {"measurement": "methylation of H3-K9 histones associated with the unmethylated genes (DDX18, INSIG2, PTPN, RALBB)", "setting": "HCT116 cells [2]", "value": "resulted in demethylation"}, {"measurement": "binding of methylated K9-H3 histones to DNA methylated genes (EN1, SCTR, INHBB, GLI2, MARCO)", "setting": "HCT116 cells [2]", "value": "binding was reduced"}]}
{"smiles": "CC(/C=C/C(=O)NO)=C\\[C@@H](C)C(=O)c1ccc(N(C)C)cc1", "note": "[TSA, trichostatin A]", "values": [{"measurement": "p21 expression activated (control gene)", "setting": "HCT116 cells [1]; 0.5 μm 5-aza-dC 24 h, TSA 24 h, co-treatment 5-aza-dC 24 h then TSA 24 h, normalised to 18S RNA, FIG. 16a", "value": "more than 3 fold"}, {"measurement": "expression of CpG island-associated genes that are unmethylated and transcriptionally repressed", "setting": "HCT116 cells [1]", "value": "some reactivation"}, {"measurement": "expression of genes hypermethylated in HCT116 (EN1, SCTR and INHBB)", "setting": "HCT116 cells [1]", "value": "small increases of expression"}, {"measurement": "methylation of H3-K9 histones associated with the p21 CpG island promoter region", "setting": "HCT116 cells [2]", "value": "substantial demethylation"}, {"measurement": "methylation of H3-K9 histones associated with the unmethylated genes (DDX18, INSIG2, PTPN, RALBB)", "setting": "HCT116 cells [2]", "value": "substantial demethylation"}, {"measurement": "binding of methylated K9-H3 histones to DNA methylated genes (EN1, SCTR, INHBB, GLI2, MARCO)", "setting": "HCT116 cells [2]", "value": "binding was reduced"}, {"measurement": "H3-K9 acetylation for genes hypermethylated in HCT116 cells", "setting": "HCT116 cells [3]", "value": "Increased H3-K9 acetylation"}]}
